# Active and inactive are the calls of the source. The calls are words filed in the database; no cut-off is given here.
# How the values were obtained:
# [1] = tested on: MCF7; assay: Induction of apoptosis in human MCF7 cells assessed as live cells at 1 times IC50 measured after 24 hrs by Annexin V-FITC staining based flow cytometry analysis (reference value: 92%); format: functional
# [2] = tested on: Cell membrane; assay: Disruption of cell membrane integrity in human MCF7 cells assessed as increase in PI fluorescence at 1 times IC50 measured after 0 to 120 mins by laser confocal scanning microscopic analysis; format: cell membranes; details: time 0-120 min
# [3] = tested on: MCF7; assay: Effect on cell cycle progression in human MCF7 cells at 1 times IC50 measured after 1 hr by PI/RNase staining based flow cytometry analysis; format: functional
# [4] = Toxicity in female Balb/c mouse implanted with mouse 4T1 cells assessed as animal death at 12 micromol/kg, ip administered every other day for 2 weeks; format: organism-based; details: in vivo, 336 h, dose 12 µmol/kg
# [5] = Toxicity in female Balb/c mouse implanted with mouse 4T1 cells assessed as pathological changes in kidney at 12 micromol/kg, ip administered every other day for 2 weeks by H and E staining based analysis; format: organism-based; details: in vivo, 336 h, dose 12 µmol/kg
# [6] = tested on: MCF7; assay: Induction of apoptosis in human MCF7 cells assessed as early apoptotic cells at 1 times IC50 measured after 24 hrs by Annexin V-FITC staining based flow cytometry analysis (reference value: 0.014%); format: functional
# [7] = tested on: MCF7; assay: Induction of apoptosis in human MCF7 cells assessed as dead cells at 1 times IC50 measured after 24 hrs by Annexin V-FITC staining based flow cytometry analysis (reference value: 6.41%); format: functional
# [8] = Toxicity in female Balb/c mouse implanted with mouse 4T1 cells assessed as pathological changes in liver at 12 micromol/kg, ip administered every other day for 2 weeks by H and E staining based analysis; format: organism-based; details: in vivo, 336 h, dose 12 µmol/kg
# [9] = Acute toxicity in female Balb/c mouse assessed as reduction in survival rate at 38 to 60 mg/kg, ip administered as single dose and measured for 7 days; format: organism-based; details: in vivo, 168 h, dose 38-60 mg/kg, time 7 day
# [10] = tested on: 4T1; assay: Antitumor activity against mouse 4T1 cells implanted in female Balb/c mouse assessed as increase in tumor cell necrosis at 12 micromol/kg, ip administered every other day for 2 weeks by H and E staining based analysis; format: functional, organism-based; details: dose 12.0 µmol/kg
# [11] = tested on: 4T1; assay: Antitumor activity against mouse 4T1 cells implanted in female Balb/c mouse assessed as increase in tumor cell apoptosis at 12 micromol/kg, ip administered every other day for 2 weeks by H and E staining based analysis; format: functional, organism-based; details: dose 12.0 µmol/kg
# [12] = tested on: Cell membrane; assay: Induction of morphological changes in cell membrane of human MCF7 cells assessed as effect on normal cell shape with intact membrane surface at 1 to 2 times IC50 incubated for 1 hr by SEM analysis; format: cell membranes
# [13] = tested on: MCF7; assay: Induction of cell cycle arrest at G2/M phase in human MCF7 cells assessed as increase in cells at G2/M phase at 1 times IC50 measured after 24 hrs by PI/RNase staining based flow cytometry analysis; format: functional
# [14] = tested on: MCF7; assay: Cytotoxicity against human MCF7 cells assessed as cell killing at 1 times IC50 measured within 12 hrs by MTT assay; format: functional, cell-based
# [15] = tested on: MCF7; assay: Cytotoxicity against human MCF7 cells assessed as cell viability at 2 times IC50 measured within 8 hrs by MTT assay; format: functional, cell-based
# [16] = tested on: MCF7; assay: Induction of apoptosis in human MCF7 cells assessed as increase in intracellular ROS generation at 1 times IC50 measured after 0 to 360 mins by DCFH-DA staining based analysis; format: functional, cell-based; details: time 0-360 min
# [17] = Acute toxicity in female Balb/c mouse assessed as shrinking cytoplasm in kidney at approximately LD50 administered as single ip dose by H and E staining based analysis; format: organism-based; details: in vivo
# [18] = tested on: MCF7; assay: Induction of apoptosis in human MCF7 cells assessed as late apoptotic cells at 1 times IC50 measured after 24 hrs by Annexin V-FITC staining based flow cytometry analysis (reference value: 1.60%); format: functional
# [19] = Toxicity in female Balb/c mouse implanted with mouse 4T1 cells assessed as pathological changes in lung at 12 micromol/kg, ip administered every other day for 2 weeks by H and E staining based analysis; format: organism-based; details: in vivo, 336 h, dose 12 µmol/kg
# [20] = tested on: MCF7; assay: Antimigratory activity in human MCF7 cells assessed as reduction in cell migration at 1 times IC50 measured after 24 hrs by scratch-wound healing assay; format: functional, cell-based
# [21] = tested on: MCF7; assay: Cytotoxicity against human MCF7 cells assessed as cell killing at 1 times IC50 measured at 24 hrs by MTT assay; format: functional, cell-based
# [22] = Acute toxicity in female Balb/c mouse assessed as heart damage at approximately LD50 administered as single ip dose by H and E staining based analysis; format: organism-based; details: in vivo
# [23] = Acute toxicity in ip dosed female Balb/c mouse administered as single dose and measured for 7 days by karber method; format: organism-based; details: in vivo, time 7 day
# [24] = tested on: Cell membrane; assay: Induction of cell membrane damage in human MCF7 cells assessed as protein leakage at 1 to 2 times IC50 measured after 0.5 to 6 hrs by UV based analysis; format: cell membranes; details: time 0.5-6 hrs
# [25] = tested on: Cell membrane; assay: Disruption of cell membrane integrity in human MCF7 cells assessed as increase in PI fluorescence at 1 to 2 times IC50 measured after 1 hr by laser confocal scanning microscopic analysis; format: cell membranes
# [26] = tested on: 4T1; assay: Antitumor activity against mouse 4T1 cells implanted in female Balb/c mouse assessed as reduction in tumor growth at 12 micromol/kg, ip administered every other day for 2 weeks and measured every 2 days; format: functional, organism-based; details: dose 12.0 µmol/kg
# [27] = Acute toxicity in female Balb/c mouse assessed as reduction in survival rate at 30 mg/kg, ip administered as single dose and measured for 7 days; format: organism-based; details: in vivo, 168 h, time 7 day
# [28] = tested on: MCF7; assay: Cytotoxicity against human MCF7 cells assessed as cell survival at 2 times IC50 incubated for 24 hrs by MTT assay relative to control; format: functional
# [29] = Toxicity in female Balb/c mouse implanted with mouse 4T1 cells assessed as pathological changes in heart at 12 micromol/kg, ip administered every other day for 2 weeks by H and E staining based analysis; format: organism-based; details: in vivo, 336 h, dose 12 µmol/kg
# [30] = tested on: MCF7; assay: Cytotoxicity against human MCF7 cells assessed as cell survival at 2 times IC50 incubated for 12 hrs by MTT assay relative to control; format: functional
# [31] = Acute toxicity in female Balb/c mouse assessed as necrosis in kidney at approximately LD50 administered as single ip dose by H and E staining based analysis; format: organism-based; details: in vivo
# [32] = tested on: 4T1; assay: Antitumor activity against mouse 4T1 cells implanted in female Balb/c mouse assessed as reduction in tumor weight at 12 micromol/kg, ip administered every other day for 2 weeks and measured every 2 days relative to control; format: functional; parameters: scale not given: the % may be the effect or the level left; details: dose 12 µmol/kg
# [33] = tested on: Cell membrane; assay: Induction of cell membrane damage in human MCF7 cells assessed as nucleic acid leakage at 1 to 2 times IC50 measured after 0.5 to 6 hrs by UV based analysis; format: cell membranes; details: time 0.5-6 hrs
# [34] = tested on: Cell membrane; assay: Disruption of cell membrane in human MCF7 cells assessed as LDH release at 2.5 to 40 uM incubated for 1 hr by fluorescence based microplate reader analysis; format: cell membranes; details: dose 2.5-40 µM
# [35] = tested on: Cell membrane; assay: Disruption of cell membrane integrity in human MCF7 cells assessed as increase in PI fluorescence at 2 times IC50 measured after 0 to 120 mins by laser confocal scanning microscopic analysis; format: cell membranes; details: time 0-120 min
# [36] = tested on: MCF7; assay: Anti-invasion activity in human MCF7 cells assessed as reduction in number of passing cells on polycarbonate membrane at 1 times IC50 measured after 24 hrs by crystal violet staining based transwell assay; format: functional, cell-based
# [37] = Toxicity in female Balb/c mouse implanted with mouse 4T1 cells assessed as pathological changes in spleen at 12 micromol/kg, ip administered every other day for 2 weeks by H and E staining based analysis; format: organism-based; details: in vivo, 336 h, dose 12 µmol/kg
# [38] = Toxicity in female Balb/c mouse implanted with mouse 4T1 cells assessed as reduction in body weight at 12 micromol/kg, ip administered every other day for 2 weeks and measured every 2 days; format: organism-based; details: in vivo, 336 h, dose 12 µmol/kg
smiles,measurement,setting,value
CC(=O)O[C@H]1C(=O)[C@@]2(C)[C@H]([C@H](OC(=O)c3ccccc3)[C@]3(O)C[C@H](OC(=O)[C@H](O)[C@@H](NC(=O)c4ccccc4)c4ccccc4)C(C)=C1C3(C)C)[C@]1(OC(C)=O)CO[C@@H]1C[C@@H]2O [PACLITAXEL],Activity,[1],30.2%
same,Activity,[2],inactive
same,Activity,[3],inactive
same,Activity,[4],Non-Toxic
same,Activity,[5],Non-Toxic
same,Activity,[6],48.4%
same,Activity,[7],1.13%
same,Activity,[8],Non-Toxic
same,Activity,[9],Toxic
same,Activity,[10],Active
same,Activity,[11],Active
same,Activity,[12],inactive
same,Activity,[13],Active
same,Activity,[14],inactive
same,Activity,[15],inactive
same,Activity,[16],Active
same,Activity,[17],Toxic
same,Activity,[18],20.3%
same,Activity,[19],Non-Toxic
same,Activity,[20],Active
same,Activity,[21],Active
same,Activity,[22],Non-Toxic
same,LD50 at 168 h,[23],39.7 mg/kg
same,Activity,[24],inactive
same,Activity,[25],inactive
same,Activity,[26],Active
same,Activity,[27],Non-Toxic
same,Survival,[28],~9.7%
same,Activity,[29],Non-Toxic
same,Survival,[30],~23.8%
same,Activity,[31],Toxic
same,Activity,[32],21.6%
same,Activity,[33],inactive
same,Activity,[34],inactive
same,Activity,[35],inactive
same,Activity,[36],Active
same,Activity,[37],Non-Toxic
same,Activity,[38],Non-Toxic

# Reference: ChEMBL document CHEMBL5584231, “Rational design of a new short anticancer peptide with good potential for cancer treatment” (Eur J Med Chem, 2024)
